Read-outs that look alike come from different tables or passages of the source.

As usually defined, the IC50 is the concentration that inhibits the measured activity by half.

One assay concerns the target PDGFRβ (Rattus norvegicus (Rat), UniProt Q05030). The assay can be described thus: PDGFRβ Cellular Assay (PDGFRb P-Y751 HTRF in A10 cells stimulated with PDGF-BB). In kind it is cell-based. In short, it runs like this: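 Rat A10 cells, plated overnight, were treated with compound for 3 hours, then stimulated with PDGF-BB (working stock 100 ng/mL in 10% FBS medium). After lysis, PDGFRβ P-Y751 was detected by HTRF.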
(In general: TR-FRET usually uses a lanthanide donor and a delayed reading to cut background.)

The target in assay [1] is His6-TEV-PDGFRβ (557-1016) (Homo sapiens (Human), UniProt P09619). Nature of the assay: PDGFRβ HTRF Assay. The conditions noted are these: read-out: PDGFR HTRF IC50. In kind it is biochemical. An outline of the steps: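 Human PDGFRβ (557-1016) pre-incubated with compound for 30 min at RT in pH 7.5 HEPES/MgCl2/EGTA/Brij-35/DTT buffer. Reaction started with ATP and TK-biotin peptide, run 3 h at RT, then quenched with EDTA-containing Eu-cryptate antibody/streptavidin-XL665. HTRF 665/620 nm ratio read after 60 min; percent inhibition relative to DMSO and 10 μM imatinib controls.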
His6-TEV-PDGFRβ (557-1016), sequence (P09619 557-1016): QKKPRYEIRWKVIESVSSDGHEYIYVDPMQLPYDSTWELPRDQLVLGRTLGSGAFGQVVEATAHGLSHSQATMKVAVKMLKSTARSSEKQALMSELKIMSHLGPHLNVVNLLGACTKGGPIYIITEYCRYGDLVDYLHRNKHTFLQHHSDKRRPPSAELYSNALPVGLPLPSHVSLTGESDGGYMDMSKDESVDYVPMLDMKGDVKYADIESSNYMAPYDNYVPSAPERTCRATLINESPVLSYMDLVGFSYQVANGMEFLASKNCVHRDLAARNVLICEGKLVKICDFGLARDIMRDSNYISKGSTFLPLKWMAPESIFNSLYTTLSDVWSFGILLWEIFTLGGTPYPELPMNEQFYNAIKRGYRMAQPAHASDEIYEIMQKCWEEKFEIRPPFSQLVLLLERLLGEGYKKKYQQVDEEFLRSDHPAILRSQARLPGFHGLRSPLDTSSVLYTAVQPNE

For assay [2], the target named is Tb-labeled inactive PDGFRβ (Homo sapiens (Human), UniProt P09619). Nature of the assay: PDGFRβ LanthaScreen Assay. In kind it is binding. The conditions noted are these: read-out: PDGFR Lantha IC50.
Tb-labeled inactive PDGFRβ, sequence (P09619 33-1106): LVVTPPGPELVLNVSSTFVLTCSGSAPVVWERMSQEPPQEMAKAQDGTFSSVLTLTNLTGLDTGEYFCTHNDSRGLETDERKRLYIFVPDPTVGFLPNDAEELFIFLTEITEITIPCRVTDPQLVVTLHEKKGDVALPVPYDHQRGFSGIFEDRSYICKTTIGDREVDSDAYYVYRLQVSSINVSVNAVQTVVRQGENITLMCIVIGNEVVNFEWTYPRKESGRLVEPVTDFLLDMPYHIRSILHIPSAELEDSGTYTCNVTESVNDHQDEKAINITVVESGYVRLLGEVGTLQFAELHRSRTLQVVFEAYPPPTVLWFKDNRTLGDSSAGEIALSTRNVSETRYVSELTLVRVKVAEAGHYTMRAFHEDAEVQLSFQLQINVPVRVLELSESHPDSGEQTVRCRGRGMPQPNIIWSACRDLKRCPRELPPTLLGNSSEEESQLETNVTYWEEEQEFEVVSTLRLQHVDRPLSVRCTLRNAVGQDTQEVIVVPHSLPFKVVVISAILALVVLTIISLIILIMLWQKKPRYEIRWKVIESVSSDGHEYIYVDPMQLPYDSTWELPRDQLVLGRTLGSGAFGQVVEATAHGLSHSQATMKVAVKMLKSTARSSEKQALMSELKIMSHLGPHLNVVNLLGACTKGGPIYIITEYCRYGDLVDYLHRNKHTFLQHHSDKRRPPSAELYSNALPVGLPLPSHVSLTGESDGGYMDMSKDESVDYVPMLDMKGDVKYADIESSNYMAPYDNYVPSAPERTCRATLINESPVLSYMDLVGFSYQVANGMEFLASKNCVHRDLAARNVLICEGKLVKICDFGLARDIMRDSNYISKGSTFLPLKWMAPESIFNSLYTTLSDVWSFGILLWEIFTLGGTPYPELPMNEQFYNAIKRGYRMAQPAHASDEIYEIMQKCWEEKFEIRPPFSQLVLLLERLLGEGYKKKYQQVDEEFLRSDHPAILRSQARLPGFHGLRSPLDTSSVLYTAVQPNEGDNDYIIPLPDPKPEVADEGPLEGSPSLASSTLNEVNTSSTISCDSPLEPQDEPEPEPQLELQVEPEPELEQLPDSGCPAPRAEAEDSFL

PDGFRβ, sequence (Q05030 32-1097): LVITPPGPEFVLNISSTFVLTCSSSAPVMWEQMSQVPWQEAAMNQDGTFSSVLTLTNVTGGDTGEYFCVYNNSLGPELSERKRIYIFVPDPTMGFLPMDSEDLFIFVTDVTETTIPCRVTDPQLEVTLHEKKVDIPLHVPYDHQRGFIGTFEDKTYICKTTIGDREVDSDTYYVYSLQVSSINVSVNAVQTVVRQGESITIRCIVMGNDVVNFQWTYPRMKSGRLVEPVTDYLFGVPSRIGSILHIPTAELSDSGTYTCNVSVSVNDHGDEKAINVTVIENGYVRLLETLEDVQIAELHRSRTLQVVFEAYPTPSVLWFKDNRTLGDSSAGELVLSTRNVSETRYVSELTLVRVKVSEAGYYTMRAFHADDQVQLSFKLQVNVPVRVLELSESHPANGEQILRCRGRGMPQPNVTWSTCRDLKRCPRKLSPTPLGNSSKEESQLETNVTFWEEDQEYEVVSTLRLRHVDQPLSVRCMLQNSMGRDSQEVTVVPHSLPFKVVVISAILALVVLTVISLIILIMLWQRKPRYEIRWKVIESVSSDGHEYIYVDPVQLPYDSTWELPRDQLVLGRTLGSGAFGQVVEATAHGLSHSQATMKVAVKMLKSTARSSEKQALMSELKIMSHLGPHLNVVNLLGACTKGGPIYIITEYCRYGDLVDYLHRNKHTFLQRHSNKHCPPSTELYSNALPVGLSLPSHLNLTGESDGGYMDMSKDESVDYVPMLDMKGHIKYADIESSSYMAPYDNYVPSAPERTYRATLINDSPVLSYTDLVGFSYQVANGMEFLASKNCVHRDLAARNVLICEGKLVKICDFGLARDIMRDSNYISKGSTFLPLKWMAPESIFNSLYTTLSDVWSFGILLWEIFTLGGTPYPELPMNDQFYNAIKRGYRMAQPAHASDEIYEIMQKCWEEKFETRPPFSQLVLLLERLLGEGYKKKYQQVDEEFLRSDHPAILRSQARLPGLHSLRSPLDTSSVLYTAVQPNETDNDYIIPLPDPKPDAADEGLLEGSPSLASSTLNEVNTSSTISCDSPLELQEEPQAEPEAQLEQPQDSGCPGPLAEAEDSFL

For the compound `Cc1ncc(NC(=O)CN2CCCC2(C)C)cc1NC(=O)c1cnn2cc(-c3cn(C)nc3C)sc12` [Example 444, 2-(1,3-Dimethyl-1H-pyrazol-4-yl)-N-(5-(2-(2,2-dimethylpyrrolidin-1-yl)acetamido)-2-methylpyridin-3-yl)pyrazolo[5,1-b]thiazole-7-carboxamide], the IC50 on PDGFRβ (read-out: PDGFR Cellular IC50) is 1.3 nM; in assay [1] it was 0.2 nM; in assay [2], 1.8 nM.
In the same order, the values of `Cc1ncc(NC(=O)CN2CC(C)(C)C2)cc1NC(=O)c1cnn2cc(-c3nn(C)nc3C)sc12` [Example 445, 2-(2,5-Dimethyl-2H-1,2,3-triazol-4-yl)-N-(5-(2-(3,3-dimethylazetidin-1-yl)acetamido)-2-methylpyridin-3-yl)pyrazolo[5,1-b]thiazole-7-carboxamide] are 2.2 nM, 0.3 nM and 2.1 nM.
In the same order, the values of `Cc1ncc(NC(=O)CN2CCC(C)C2)cc1NC(=O)c1cnn2cc(-c3cn(C)nc3C)sc12` (stereo not drawn) [Example 446, 2-(1,3-Dimethyl-1H-pyrazol-4-yl)-N-(2-methyl-5-(2-(3-methylpyrrolidin-1-yl)acetamido)pyridin-3-yl)pyrazolo[5,1-b]thiazole-7-carboxamide] are 3 nM, 0.3 nM and 3.5 nM.
In the same order, the values of `Cc1ncc(NC(=O)CN2CCCC2(C)C)cc1NC(=O)c1cnn2cc(-c3cnn(CCO)c3)sc12` [Example 447, N-(5-(2-(2,2-dimethylpyrrolidin-1-yl)acetamido)-2-methylpyridin-3-yl)-2-(1-(2-hydroxyethyl)-1H-pyrazol-4-yl)pyrazolo[5,1-b]thiazole-7-carboxamide] are 12.4 nM, 0.5 nM and 3.7 nM.
For `Cc1ncc(NC(=O)CN2CCCC2(C)C)cc1NC(=O)c1cnn2cc(-c3cccnc3OCCF)sc12` [Example 448, N-(5-(2-(2,2-dimethylpyrrolidin-1-yl)acetamido)-2-methylpyridin-3-yl)-2-(2-(2-fluoroethoxy)pyridin-3-yl)pyrazolo[5,1-b]thiazole-7-carboxamide], the values for the IC50 (on PDGFRβ (read-out: PDGFR Cellular IC50); in assay [1]; in assay [2]) were 2.4 nM, 0.2 nM and 1.8 nM, respectively.
In the same order, the values of `Cc1ncc(NC(=O)CN2CCCC2(C)C)cc1NC(=O)c1cnn2cc(-c3cccn(CCF)c3=O)sc12` [Example 449, N-(5-(2-(2,2-dimethylpyrrolidin-1-yl)acetamido)-2-methylpyridin-3-yl)-2-(1-(2-fluoroethyl)-2-oxo-1,2-dihydropyridin-3-yl)pyrazolo[5,1-b]thiazole-7-carboxamide] are 10.6 nM, 0.7 nM and 9.1 nM.
In the same order, the values of `Cc1ncc(C(=O)NCCN2CCCC2(C)C)cc1NC(=O)c1cnn2cc(-c3cnn4c3COCC4)sc12` [Example 450, 2-(6,7-dihydro-4H-pyrazolo[5,1-c][1,4]oxazin-3-yl)-N-(5-((2-(2,2-dimethylpyrrolidin-1-yl)ethyl)carbamoyl)-2-methylpyridin-3-yl)pyrazolo[5,1-b]thiazole-7-carboxamide] are 21.6 nM, 0.4 nM and 2.4 nM.
For the compound `COCCn1cc(-c2cn3ncc(C(=O)Nc4cc(NC(=O)C[C@@H]5CCCN5C(C)C)cnc4C)c3s2)cn1` [Example 451, (S)—N-(5-(2-(1-isopropylpyrrolidin-2-yl)acetamido)-2-methylpyridin-3-yl)-2-(1-(2-methoxyethyl)-1H-pyrazol-4-yl)pyrazolo[5,1-b]thiazole-7-carboxamide], the IC50 at PDGFRβ (read-out: PDGFR Cellular IC50) turned out to be 67 nM; in assay [1], 0.8 nM; in assay [2] it was 16.1 nM.
In the same order, the values of `COCCn1cc(-c2cn3ncc(C(=O)Nc4cc(NC(=O)C5(CN6CCC[C@@H]6C)CC5)cnc4C)c3s2)cn1` [Example 452, (S)-2-(1-(2-methoxyethyl)-1H-pyrazol-4-yl)-N-(2-methyl-5-(1-((2-methylpyrrolidin-1-yl)methyl)cyclopropanecarboxamido)pyridin-3-yl)pyrazolo[5,1-b]thiazole-7-carboxamide] are 91.6 nM, 12.1 nM and 376 nM.
In the case of `Cc1ncc(NC(=O)CNCC2CC2)cc1NC(=O)c1cnn2cc(-c3cnn4c3OCCC4)sc12` [Example 453, N-(5-(2-((cyclopropylmethyl)amino)acetamido)-2-methylpyridin-3-yl)-2-(6,7-dihydro-5H-pyrazolo[5,1-b][1,3]oxazin-3-yl)pyrazolo[5,1-b]thiazole-7-carboxamide], the IC50 was determined as 25.1 nM at PDGFRβ (read-out: PDGFR Cellular IC50), 0.6 nM in assay [1] and 5.8 nM in assay [2].
Taken in the same sequence, the figures for `Cc1ncc(NC(=O)CNCC2CC2)cc1NC(=O)c1cnn2cc(-c3cnn4c3CCC4)sc12` [Example 454, N-(5-(2-((cyclopropylmethyl)amino)acetamido)-2-methylpyridin-3-yl)-2-(5,6-dihydro-4H-pyrrolo[1,2-b]pyrazol-3-yl)pyrazolo[5,1-b]thiazole-7-carboxamide] were 12.7 nM, 0.4 nM and 4.6 nM.
As to `CCCNCC(=O)Nc1cnc(C)c(NC(=O)c2cnn3cc(-c4cnn5c4OCCC5)sc23)c1` [Example 455, 2-(6,7-dihydro-5H-pyrazolo[5,1-b][1,3]oxazin-3-yl)-N-(2-methyl-5-(2-(propylamino)acetamido)pyridin-3-yl)pyrazolo[5,1-b]thiazole-7-carboxamide], the IC50 was 15 nM at PDGFRβ (PDGFR Cellular IC50), 0.6 nM in assay [1] and 3.3 nM in assay [2].
Take `CCCNCC(=O)Nc1cnc(C)c(NC(=O)c2cnn3cc(-c4cnn5c4CCC5)sc23)c1` [Example 456, 2-(5,6-dihydro-4H-pyrrolo[1,2-b]pyrazol-3-yl)-N-(2-methyl-5-(2-(propylamino)acetamido)pyridin-3-yl)pyrazolo[5,1-b]thiazole-7-carboxamide]: the IC50 on PDGFRβ (read-out: PDGFR Cellular IC50) was determined as 11 nM; in assay [1], 0.4 nM; in assay [2] it was 4.7 nM.
Consider `Cc1ncc(NC(=O)CN2CCCC2(C)C)cc1NC(=O)c1cnn2cc(-c3cnn(C(C)(C)CO)c3)sc12` [Example 457, N-(5-(2-(2,2-dimethylpyrrolidin-1-yl)acetamido)-2-methylpyridin-3-yl)-2-(1-(1-hydroxy-2-methylpropan-2-yl)-1H-pyrazol-4-yl)pyrazolo[5,1-b]thiazole-7-carboxamide], for which the results for the IC50 (at PDGFRβ (read-out: PDGFR Cellular IC50); in assay [1]; in assay [2]) were 4 nM, 0.4 nM and 3.4 nM, respectively.
Taken in the same sequence, the figures for `Cc1ncc(NC(=O)CN2CCCC2(C)C)cc1NC(=O)c1cnn2cc(-c3cnn4c3COCC4)sc12` [Example 458, 2-(6,7-dihydro-4H-pyrazolo[5,1-c][1,4]oxazin-3-yl)-N-(5-(2-(2,2-dimethylpyrrolidin-1-yl)acetamido)-2-methylpyridin-3-yl)pyrazolo[5,1-b]thiazole-7-carboxamide] were 2 nM, 0.3 nM and 1.7 nM.
Regarding `Cc1ncc(C(=O)NCCN2CC3CCC2CC3)cc1NC(=O)c1cnn2cc(-c3cnn4c3COCC4)sc12` [Example 459, N-(5-((2-(2-azabicyclo[2.2.2]octan-2-yl)ethyl)carbamoyl)-2-methylpyridin-3-yl)-2-(6,7-dihydro-4H-pyrazolo[5,1-c][1,4]oxazin-3-yl)pyrazolo[5,1-b]thiazole-7-carboxamide], the IC50 at PDGFRβ (read-out: PDGFR Cellular IC50) was found to be 33.7 nM; in assay [1], 0.3 nM; in assay [2], 1.5 nM.
